Results taken from patent US8460669B2, “Compositions and methods for identifying response targets and treating flavivirus infection responses” (Academia Sinica, priority 2005, dated 2013).

T1: DC-SIGN (Homo sapiens, UniProt Q9NNX6)
T1 construct: expressed in transfected cells; host or cells: 293T cells
T1 sequence (Q9NNX6 1-404): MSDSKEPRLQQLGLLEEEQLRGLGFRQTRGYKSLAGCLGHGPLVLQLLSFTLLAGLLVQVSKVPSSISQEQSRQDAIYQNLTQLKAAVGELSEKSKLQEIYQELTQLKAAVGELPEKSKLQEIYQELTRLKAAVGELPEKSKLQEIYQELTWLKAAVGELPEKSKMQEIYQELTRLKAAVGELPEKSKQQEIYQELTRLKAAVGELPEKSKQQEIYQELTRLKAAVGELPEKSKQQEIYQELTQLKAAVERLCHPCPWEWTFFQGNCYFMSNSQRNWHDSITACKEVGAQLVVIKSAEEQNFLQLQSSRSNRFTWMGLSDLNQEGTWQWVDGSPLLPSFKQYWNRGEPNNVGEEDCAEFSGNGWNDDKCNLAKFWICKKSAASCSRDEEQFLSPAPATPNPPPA

T2: MMR.Fc (Homo sapiens, UniProt P22897)
T2 construct: The extracellular domains of lectin receptors, TREMs and TLTs were cloned by the reverse-transcriptase polymerase chain reaction (RT-PCR); made in house; host or cells: 293-F (FreeStyle 293) cells
T2 sequence (P22897 19-1389 limits assumed): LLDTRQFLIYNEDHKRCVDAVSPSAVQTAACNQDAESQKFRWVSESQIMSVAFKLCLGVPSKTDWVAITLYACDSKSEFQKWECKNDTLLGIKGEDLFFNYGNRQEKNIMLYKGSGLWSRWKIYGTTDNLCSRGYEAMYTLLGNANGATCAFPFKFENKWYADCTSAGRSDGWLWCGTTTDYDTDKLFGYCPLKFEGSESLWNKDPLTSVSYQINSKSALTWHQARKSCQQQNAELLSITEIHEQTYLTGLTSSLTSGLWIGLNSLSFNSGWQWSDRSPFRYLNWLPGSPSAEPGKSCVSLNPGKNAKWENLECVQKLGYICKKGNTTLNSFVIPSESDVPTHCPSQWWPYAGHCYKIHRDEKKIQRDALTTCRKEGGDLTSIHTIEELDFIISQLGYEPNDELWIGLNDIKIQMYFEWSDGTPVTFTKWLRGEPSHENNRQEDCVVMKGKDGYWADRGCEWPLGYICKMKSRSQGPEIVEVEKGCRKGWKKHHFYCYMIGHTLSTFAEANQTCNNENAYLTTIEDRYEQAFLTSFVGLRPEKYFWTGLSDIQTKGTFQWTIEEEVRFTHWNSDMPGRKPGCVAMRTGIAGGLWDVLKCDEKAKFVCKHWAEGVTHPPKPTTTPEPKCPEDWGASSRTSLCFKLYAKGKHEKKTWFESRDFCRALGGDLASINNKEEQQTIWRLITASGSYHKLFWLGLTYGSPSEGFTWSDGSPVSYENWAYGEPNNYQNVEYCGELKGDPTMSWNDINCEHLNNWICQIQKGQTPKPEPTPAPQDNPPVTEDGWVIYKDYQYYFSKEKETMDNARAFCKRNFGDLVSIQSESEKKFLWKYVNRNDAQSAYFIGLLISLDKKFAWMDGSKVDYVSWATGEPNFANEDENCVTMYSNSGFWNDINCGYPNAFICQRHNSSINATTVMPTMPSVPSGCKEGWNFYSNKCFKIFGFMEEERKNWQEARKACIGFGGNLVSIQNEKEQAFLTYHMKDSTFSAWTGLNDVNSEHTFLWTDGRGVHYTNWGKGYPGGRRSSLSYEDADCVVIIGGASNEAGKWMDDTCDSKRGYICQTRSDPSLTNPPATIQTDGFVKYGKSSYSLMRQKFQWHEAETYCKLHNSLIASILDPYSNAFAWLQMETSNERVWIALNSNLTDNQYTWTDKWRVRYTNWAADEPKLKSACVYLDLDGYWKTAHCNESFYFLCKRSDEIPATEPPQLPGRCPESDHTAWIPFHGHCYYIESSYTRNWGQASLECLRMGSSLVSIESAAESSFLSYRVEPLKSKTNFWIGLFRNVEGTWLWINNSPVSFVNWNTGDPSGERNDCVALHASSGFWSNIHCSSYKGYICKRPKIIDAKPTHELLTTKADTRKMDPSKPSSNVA

T3: DC-SIGN (Homo sapiens, UniProt Q9NNX6)
T3 construct: The extracellular domains of lectin receptors, TREMs and TLTs were cloned by the reverse-transcriptase polymerase chain reaction (RT-PCR); made in house; host or cells: 293-F (FreeStyle 293) cells
T3 sequence (Q9NNX6 59-404 limits assumed): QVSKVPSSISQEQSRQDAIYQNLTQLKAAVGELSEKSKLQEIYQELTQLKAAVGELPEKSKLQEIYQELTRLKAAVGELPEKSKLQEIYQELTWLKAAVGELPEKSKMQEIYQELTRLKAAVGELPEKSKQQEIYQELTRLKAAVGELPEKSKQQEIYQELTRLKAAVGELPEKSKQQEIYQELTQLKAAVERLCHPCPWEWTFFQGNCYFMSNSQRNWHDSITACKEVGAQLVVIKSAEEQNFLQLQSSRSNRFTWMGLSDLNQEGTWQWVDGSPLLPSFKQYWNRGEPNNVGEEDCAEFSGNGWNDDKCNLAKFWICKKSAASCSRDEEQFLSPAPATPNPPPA

B1: sDVLR1/CLEC5A: alternatively spliced form of human DVLR1/CLEC5A (aa 43-65 deleted), SEQ ID NO: 73 (protein)
chain: MNWHMIISGLIVVVLKVVGMTLFLLYFPQIFNKSNDGFTTTRSYGTVCPKDWEFYQARCFFLSTSESSWNESRDFCKGKGSTLAIVNTPEKLFLQDITDAEKYFIGLIYHREEKRWRWINNSVFNGNVTNQNQNFNCATIGLTKTFDAASCDISYRRICEKNAK
modifications: Human

What was measured:
TLR4.Fc = target: T4, TLR4.Fc (Homo sapiens, UniProt O00206); experiment: Sugar competition EIA, TLR4.Fc binding to GLPS-F3; conditions: sugar 1 mg/ml
T4 construct: The extracellular domains of several innate immunity receptors from immune cells were cloned by reverse-transcription polymerase chain reaction (RT-PCR); made in house; host or cells: 293-F (FreeStyle 293) cells
T4 sequence (O00206 24-631 limits assumed): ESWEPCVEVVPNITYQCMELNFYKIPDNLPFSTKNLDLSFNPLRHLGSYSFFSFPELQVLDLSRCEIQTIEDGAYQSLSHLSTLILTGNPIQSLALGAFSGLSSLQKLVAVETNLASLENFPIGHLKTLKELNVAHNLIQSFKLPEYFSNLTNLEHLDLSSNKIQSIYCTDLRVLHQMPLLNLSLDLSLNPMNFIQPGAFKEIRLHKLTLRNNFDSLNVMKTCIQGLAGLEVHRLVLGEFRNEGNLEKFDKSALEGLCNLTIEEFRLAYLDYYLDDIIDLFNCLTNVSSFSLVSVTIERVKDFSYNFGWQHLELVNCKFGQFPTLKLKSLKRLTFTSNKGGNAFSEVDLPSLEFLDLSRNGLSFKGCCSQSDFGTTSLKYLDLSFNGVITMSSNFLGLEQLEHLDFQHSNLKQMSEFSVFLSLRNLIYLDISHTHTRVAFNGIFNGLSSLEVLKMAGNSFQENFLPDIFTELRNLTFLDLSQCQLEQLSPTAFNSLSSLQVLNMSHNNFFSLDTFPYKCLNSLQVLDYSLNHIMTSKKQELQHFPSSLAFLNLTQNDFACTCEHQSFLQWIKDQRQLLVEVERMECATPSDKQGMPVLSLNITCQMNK
Description: (§1) The interaction between GLPS-F3 and receptor.Fc was then tested. Unbiotinylated GLPS-F3 was immobilized at 100 ng/well as described above, and 100 μL receptor.Fc fusion protein (1 μg/ml in 2 mM MgCl2/2 mM CaCl2/1% BSA/TBST) was added into each well and incubated for 1 hour at room temperature. After washing with TBST, wells were incubated with peroxidase-conjugated goat anti-human IgG Ab (1:5000 dilution, Jackson ImmunoResearch Laboratories) in blocking buffer at room temperature for 30 min. Wells were incubated with 100 μL TMB substrate for 15 min after TBST washing and read at 450 nm in a Fusion plate reader (Perkin Elmer). The results were normalized with respect to Fc.Dectin-1 binding (Dectin-1 is a known lectin receptor that binds to β-1,3-glucan which is the backbone found in GLPS-F3). FIG. 6B depicts in graphical form the affinity of each receptor for GLPS-F3 relative to Dectin-1. […] There was also weaker but positive GLPS-F3 binding ability (25-50% binding intensity compared to Fc.dectin-1) found in Fc.NKG2D, Fc.MINCLE, Fc.mKCR, DCAL1.Fc, DEC205.Fc, Endo180.Fc and NKp30(NCR3).Fc.
(§2) To understand the interaction of GLPS-F3 with specific innate immunity receptors, the polysaccharides mannan and β-glucan and the monosaccharides D-mannose (Man), D-glucose (Glc), N-acetyl-glucosamine (GlcNAc), D-galactose (Gal), N-acetyl-galactosamine (GalNAc), L-fucose (Fuc) and sialic acid, were used in a competition assay. […] The assays were carried out as in Example 9, with the addition of 1 mg/ml of each polysaccharide or monosaccharide.

DC-SIGN [1] = target: T1, DC-SIGN; experiment: Sugar competition, biotinylated DV binding to DC-SIGN-transfected 293T cells; type: cell-based; conditions: flow cytometry
Description: In FIG. 16b, complexes of DV (5×10^6 PFU) with receptor.Fc (5 μg) were immunoprecipitated and detected on westerns with mAb to DV envelope (E) protein. […] FIGS. 16d and 16e show sugar competition assays wherein both DC-SIGN (CLEC4L) and DVLR1/CLEC5A increase DV binding to human 293T cells (FIG. 16d), while addition of sugars inhibits biotinylated DV binding to DC-SIGN- (left panel) or DLVR1/CLEC5A- (right panel) transfected 293T cells in a dose-dependent manner as determined by flow cytometry (FIG. 16e). According to FIG. 16e, MFI represents mean fluorescence intensity. Units (U) for monosaccharide (mannose and fucose) and polysaccharide (mannan) are mM and mg/ml, respectively. […] Data are expressed as the mean±s.d. of three independent experiments. Two-tailed, Student's t-tests were performed.
There are two conserved N-linked glycosylation sites at Asn-67 and Asn-153 of E protein (Pokidysheva, E. et al., Cell 124:485-93 (2006)), and the attached glycans (with terminal fucose and mannose) have been implicated in cellular attachment and viral entry (Modis, Y. et al., J. Virol. 79:1223-1231 (2005)). To investigate the participation of glycans in the association of DVLR1/CLEC5A with DV, virions were incubated with fucose, mannose, or mannan; where the last two sugars are the ligands for DC-SIGN (Mitchell et al., J. Biol. Chem. 276: 28939-28945 ([…])).

MMR.Fc = target: T2, MMR.Fc; experiment: Sugar competition EIA, MMR.Fc binding to GLPS-F3; conditions: sugar 1 mg/ml
Description: as §1, §2

Langerin = target: T5, Langerin (Homo sapiens, UniProt Q9UJ71); experiment: Sugar competition EIA, Fc.Langerin binding to GLPS-F3; conditions: sugar 1 mg/ml
T5 construct: The extracellular domains of lectin receptors, TREMs and TLTs were cloned by the reverse-transcriptase polymerase chain reaction (RT-PCR); made in house; host or cells: 293-F (FreeStyle 293) cells
T5 sequence (Q9UJ71 65-328 limits assumed): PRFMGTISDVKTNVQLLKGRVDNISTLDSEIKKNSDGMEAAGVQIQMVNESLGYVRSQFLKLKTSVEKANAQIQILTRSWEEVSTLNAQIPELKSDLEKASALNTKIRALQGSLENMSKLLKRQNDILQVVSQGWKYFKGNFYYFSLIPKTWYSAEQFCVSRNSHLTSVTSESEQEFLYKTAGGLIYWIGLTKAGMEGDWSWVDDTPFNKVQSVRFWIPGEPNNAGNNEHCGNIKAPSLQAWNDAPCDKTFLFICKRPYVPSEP
Description: as §1, §2

DC-SIGN [2] = target: T3, DC-SIGN; experiment: Sugar competition EIA, Fc.DC-SIGN binding to GLPS-F3; conditions: sugar 1 mg/ml
Description: as §1, §2

JEV = experiment: ELISA of DVLR1/CLEC5A.Fc interaction with JEV; type: binding, Japanese encephamyelitis virus; conditions: 1 μg; JEV 5×10^6 PFU
Description: Like with DV, JEV follows a similar virus infection response pattern, which is believed to be the same or similar in all flaviviruses. […] (1 μg), with JEV and DV (5×10^6 PFU), respectively, were determined by ELISA. DV interacts with human DVLR1/CLEC5A (187 amino acid in length) SEQ ID NO: 72, but not the alternatively spliced form sDVLR1/CLEC5A (aa 43-65 is deleted). SEQ ID NO: 73. […] DAP12 in DV-infected macrophages were precipitated by anti-DAP12 mAb, blotted to nitrocellulose paper after fractionation on SDS-PAGE, followed by incubation with antibodies against phosphotyrosine and DAP12, respectively. JEV-induced DAP12 phosphorylation (m.o.i.=5) is inhibited by pLL3.7/DVLR1/CLEC5A. […] JEV-induced TNF-α secretion is inhibited by […] mAb (right). Data are expressed as the mean±s.d. of three independent experiments.

Dengue virus = experiment: ELISA of receptor.Fc interaction with Dengue virus; type: binding; conditions: receptor.Fc 1 μg; DV 5×10^6
Description: One μg of each receptor.Fc fusion protein was coated onto microtiter plates overnight at 4° C. DV (5×10^6 particles) of strain 16681 (a DEN2 strain) in binding buffer (1% BSA, 2 mM CaCl2, 2 mM MgCl2, 50 mM Tris-HCl pH 7.5, 150 mM NaCl) was then added to the plates and the plates were incubated for 2 hours. After washing non-bound virus, a biotinylated anti-DEN2 envelope protein antibody (Wu et al., J Virol, 2002. 76(8): p. 3596-604) was applied to bind to the virus for 1 hour. Diluted horseradish peroxidase-conjugated streptavidin was then added to the plates, followed by a 1 hour incubation. TMB substrate was then added and the plates were read using an ELISA reader at OD450 nm.
The microtiter plate assay was repeated in the presence of EDTA (10 mM) to chelate Ca^++ cations.
The microtiter plate assay was also repeated for DVLR1/CLEC5A.Fc fusion protein with DV particles (5×10^6) that had been 1) preincubated with 500 U of the glycosidase PNGaseF (New England Biolabs, Inc.) overnight at 37° C.; or 2) treated with dithiothreitol (DTTI) (0.1M); or 3) incubated at 95° C. for 5 minutes; or 4) UV irradiated for 5 minutes. The results are shown in FIG. 8D (asterisks indicate where the binding affinity of DVLR1/CLEC5A.Fc fusion protein is altered by modification of the virus relative to non-treated virus; ** p<0.01, *** p<0.001, Student's t test). […]

Molecule	Percentage of binding of TLR4.Fc to GLPS-F3 relative to binding in absence of sugar competitor (TLR4.Fc) [%]	inhibition of the DC-SIGN-DV interaction (DC-SIGN [1])	inhibition of interaction between GLPS-F3 and MMR.Fc (MMR.Fc) [%]	inhibition of interaction between Fc.Langerin and GLPS-F3 (Langerin) [%]	inhibition of binding of Fc.DC-SIGN to GLPS-F3 (DC-SIGN [2]) [%]	interaction with JEV (ELISA) (JEV)	interaction of receptor.Fc with Dengue virus (ELISA) (Dengue virus)
O=C[C@@H](O)[C@@H](O)[C@H](O)[C@H](O)CO [Man, D-mannose]	89 ± 2.6	dose-dependent inhibition	87	26	72	–	–
B1	–	–	–	–	–	only interacts	not
